Data from PubChem BioAssay AID1919002 (Molecular Pharmacology Branch, DTP, NCI, 2023).

Test system: 743489-274-T-PDC complex spheroid growth
Test: Anticancer human tumor 743489-274-T-PDC patient-derived renal cell carcinoma cell line growth inhibition [AhR]
Details: for IC50: curve of first compound; for viability, T/C: stronger effect = lower value
How it was run: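 Agents were dosed in half-log steps down from roughly clinical Cmax, or from 10 microM where Cmax was unknown, alone and with AhR antagonists. Read-out: percent test/control growth of tumor spheroids containing HUVEC and MSC stromal cells.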

[1] = second compound 0.1 µM, first compound 0.0316 µM
[2] = second compound 0.1 µM, first compound 0.1 µM
[3] = second compound 0.1 µM, first compound 0.316 µM
[4] = second compound 0.1 µM, first compound 1 µM
[5] = second compound 0.1 µM, first compound 3.16 µM
[6] = second compound 0.1 µM, first compound 10 µM
[7] = second compound 0.316 µM, first compound 0.0316 µM
[8] = second compound 0.316 µM, first compound 0.1 µM
[9] = second compound 0.316 µM, first compound 0.316 µM
[10] = second compound 0.316 µM, first compound 1 µM
[11] = second compound 0.316 µM, first compound 3.16 µM
[12] = second compound 0.316 µM, first compound 10 µM
[13] = second compound 1 µM, first compound 0.0316 µM
[14] = second compound 1 µM, first compound 0.1 µM
[15] = second compound 1 µM, first compound 0.316 µM
[16] = second compound 1 µM, first compound 1 µM
[17] = second compound 1 µM, first compound 3.16 µM
[18] = second compound 1 µM, first compound 10 µM
[19] = second compound 3.16 µM, first compound 0.0316 µM
[20] = second compound 3.16 µM, first compound 0.1 µM
[21] = second compound 3.16 µM, first compound 0.316 µM
[22] = second compound 3.16 µM, first compound 1 µM
[23] = second compound 3.16 µM, first compound 3.16 µM
[24] = second compound 3.16 µM, first compound 10 µM
[25] = second compound 10 µM, first compound 0.0316 µM
[26] = second compound 10 µM, first compound 0.1 µM
[27] = second compound 10 µM, first compound 0.316 µM
[28] = second compound 10 µM, first compound 1 µM
[29] = second compound 10 µM, first compound 3.16 µM
[30] = second compound 10 µM, first compound 10 µM
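Also: spheroids exposed to agents for 7 days before readout.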
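For viability, T/C in this document: 100% = DMSO vehicle control wells.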

## CC(C)c1c(-c2ccccc2)nc2c(C#N)c[nH]n2c1=O + CC(CO)NC(=O)c1cc(-c2ccc(Cl)cc2)nn(-c2cnn(C)c2)c1=O
Second compound 0.1 µM
  IC50: > 10 µM
Second compound 0.316 µM
  IC50: > 10 µM
Second compound 1 µM
  IC50: > 10 µM
Second compound 3.16 µM
  IC50: > 10 µM
Second compound 10 µM
  IC50: > 10 µM
[1]
  viability, T/C: 101%
[2]
  viability, T/C: 96.5%
[3]
  viability, T/C: 101%
[4]
  viability, T/C: 111%
[5]
  viability, T/C: 93.9%
[6]
  viability, T/C: 102%
[7]
  viability, T/C: 93%
[8]
  viability, T/C: 97.9%
[9]
  viability, T/C: 99.2%
[10]
  viability, T/C: 93.2%
[11]
  viability, T/C: 90.4%
[12]
  viability, T/C: 102%
[13]
  viability, T/C: 94.7%
[14]
  viability, T/C: 90.3%
[15]
  viability, T/C: 97.5%
[16]
  viability, T/C: 90.2%
[17]
  viability, T/C: 102%
[18]
  viability, T/C: 101%
[19]
  viability, T/C: 90%
[20]
  viability, T/C: 99.5%
[21]
  viability, T/C: 99.9%
[22]
  viability, T/C: 96.6%
[23]
  viability, T/C: 98.3%
[24]
  viability, T/C: 95%
[25]
  viability, T/C: 98.9%
[26]
  viability, T/C: 101%
[27]
  viability, T/C: 99.7%
[28]
  viability, T/C: 95.7%
[29]
  viability, T/C: 95.1%
[30]
  viability, T/C: 93.8%

## COc1ccc([C@@H](O)c2cc(-c3ncnc4cc(N5CCOCC5)ccc34)c(F)cc2Cl)nn1 + CC(CO)NC(=O)c1cc(-c2ccc(Cl)cc2)nn(-c2cnn(C)c2)c1=O
Second compound 0.1 µM
  IC50: 3.1 µM
Second compound 0.316 µM
  IC50: 3.68 µM
Second compound 1 µM
  IC50: 3.25 µM
Second compound 3.16 µM
  IC50: 2.6 µM
Second compound 10 µM
  IC50: 2.73 µM
[1]
  viability, T/C: 103%
[2]
  viability, T/C: 96.8%
[3]
  viability, T/C: 92.4%
[4]
  viability, T/C: 86%
[5]
  viability, T/C: 48.8%
[6]
  viability, T/C: 28.8%
[7]
  viability, T/C: 86%
[8]
  viability, T/C: 87.8%
[9]
  viability, T/C: 89.4%
[10]
  viability, T/C: 78.2%
[11]
  viability, T/C: 54%
[12]
  viability, T/C: 25.2%
[13]
  viability, T/C: 87.9%
[14]
  viability, T/C: 89.4%
[15]
  viability, T/C: 88.2%
[16]
  viability, T/C: 77.9%
[17]
  viability, T/C: 50.7%
[18]
  viability, T/C: 25.5%
[19]
  viability, T/C: 92.3%
[20]
  viability, T/C: 81.7%
[21]
  viability, T/C: 87.3%
[22]
  viability, T/C: 73.9%
[23]
  viability, T/C: 45%
[24]
  viability, T/C: 25.7%
[25]
  viability, T/C: 101%
[26]
  viability, T/C: 92%
[27]
  viability, T/C: 93.8%
[28]
  viability, T/C: 79.3%
[29]
  viability, T/C: 45.5%
[30]
  viability, T/C: 20.9%

## COc1cccc2c1C(=O)c1c(O)c3c(c(O)c1C2=O)CC(O)(C(=O)CO)CC3OC1CC(N)C(O)C(C)O1 (stereo not given) + Cc1ccccc1N=Nc1ccc(NC(=O)c2ccnn2C)c(C)c1
Second compound 0.1 µM
  IC50: 5.54 µM
Second compound 0.316 µM
  IC50: 5.43 µM
Second compound 1 µM
  IC50: 9.11 µM
Second compound 3.16 µM
  IC50: 8.62 µM
Second compound 10 µM
  IC50: 4.79 µM
[1]
  viability, T/C: 102%
[2]
  viability, T/C: 97.3%
[3]
  viability, T/C: 114%
[4]
  viability, T/C: 102%
[5]
  viability, T/C: 73.3%
[6]
  viability, T/C: 25.6%
[7]
  viability, T/C: 107%
[8]
  viability, T/C: 96.8%
[9]
  viability, T/C: 99.7%
[10]
  viability, T/C: 105%
[11]
  viability, T/C: 81.4%
[12]
  viability, T/C: 14.5%
[13]
  viability, T/C: 96%
[14]
  viability, T/C: 101%
[15]
  viability, T/C: 98.6%
[16]
  viability, T/C: 95.2%
[17]
  viability, T/C: 80.4%
[18]
  viability, T/C: 47.3%
[19]
  viability, T/C: 90%
[20]
  viability, T/C: 88.8%
[21]
  viability, T/C: 105%
[22]
  viability, T/C: 96%
[23]
  viability, T/C: 87.3%
[24]
  viability, T/C: 44.3%
[25]
  viability, T/C: 85.3%
[26]
  viability, T/C: 82.2%
[27]
  viability, T/C: 95.1%
[28]
  viability, T/C: 83.5%
[29]
  viability, T/C: 71.9%
[30]
  viability, T/C: 11.7%
